test system: LNCaP cells; test: Test of prostate cancer cell proliferation induced by DHT (MTT); type: cell-based; settings: Homo sapiens, 144 h, read-out: IC50, inhibition of LNCaP cell proliferation stimulated by DHT
Procedure: LNCaP cells were cultured in RPMI1640 medium containing 10% FBS and 2 mM L-glutamine. The above medium was replaced by RPMI1640 medium containing 5% CD-FBS one day before experiment. When the cells grew to 90% confluence, the cells were added to 96-well plate with 4000 cells/90 μL/well after dissociated with trypsin, and were cultured at 37° C. overnight. The compounds to be tested were added to the cells with 10 μL/well after diluted to certain concentrations. […]. […] MTT solution (5 mg/mL) was added with 20 μL/well before the culture was completed. Light absorption values at 560 nm were measured with the reference wavelength of 690 nm.

Compound | IC50 [nM]
O=C(CC(Nc1ccc([N+](=O)[O-])cc1)c1ccco1)c1ccc(Cl)cc1 (stereo not drawn) [MWW6032] | 2280

target: T1, androgen receptor (Homo sapiens, UniProt P10275); test: Test of receptor binding activity ([3H]DHT competition, hydroxyapatite); settings: Receptor binding (IC50, nM), competition with 5 nM [3H]DHT, overnight at 4° C.
T1 construct: made in house; host or cells: insect cells (baculovirus expression system)
T1 sequence (P10275 1-920): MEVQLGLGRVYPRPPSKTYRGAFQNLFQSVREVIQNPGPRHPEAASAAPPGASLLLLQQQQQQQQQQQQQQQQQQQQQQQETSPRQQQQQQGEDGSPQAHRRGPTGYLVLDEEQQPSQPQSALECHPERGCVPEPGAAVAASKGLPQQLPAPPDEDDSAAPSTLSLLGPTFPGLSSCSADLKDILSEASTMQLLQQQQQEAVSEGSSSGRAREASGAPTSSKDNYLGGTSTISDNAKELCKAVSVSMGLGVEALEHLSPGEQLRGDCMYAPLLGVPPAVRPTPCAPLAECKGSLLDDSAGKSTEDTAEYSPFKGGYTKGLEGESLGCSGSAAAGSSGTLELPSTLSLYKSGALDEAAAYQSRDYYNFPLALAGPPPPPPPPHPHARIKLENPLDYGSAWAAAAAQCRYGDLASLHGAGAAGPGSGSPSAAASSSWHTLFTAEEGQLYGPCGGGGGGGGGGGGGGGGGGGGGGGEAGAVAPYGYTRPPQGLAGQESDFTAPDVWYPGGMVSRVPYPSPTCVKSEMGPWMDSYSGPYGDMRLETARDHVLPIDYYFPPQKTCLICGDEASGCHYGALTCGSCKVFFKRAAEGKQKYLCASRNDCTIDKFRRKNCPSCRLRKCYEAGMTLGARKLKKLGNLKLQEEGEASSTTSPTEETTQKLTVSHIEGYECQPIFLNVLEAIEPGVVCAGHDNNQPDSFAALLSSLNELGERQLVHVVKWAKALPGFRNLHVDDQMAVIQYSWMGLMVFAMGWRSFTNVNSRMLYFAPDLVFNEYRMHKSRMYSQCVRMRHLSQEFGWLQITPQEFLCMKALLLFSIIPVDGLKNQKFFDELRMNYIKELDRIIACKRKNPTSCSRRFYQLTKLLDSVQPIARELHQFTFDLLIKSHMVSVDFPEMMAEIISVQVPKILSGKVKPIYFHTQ
Procedure: Then the resultant mixture was added into the plates with a volume of 195 μl each well immediately after mixed thoroughly, and incubated overnight at 4° C. After the incubation was completed, 50 μl of hydroxyapatite (HA) solution (25% HA, 25 mM Na3PO4, pH7.4) was added to each well of the calandria, uniformly mixed by shaking, and incubated for 10 minutes, during the period it was shaken once every 3 minutes. The centrifugation was conducted at 2500 rpm for 3 minutes, the supernatant was sucked out, and the precipitate was reserved. Two hundred μl of the assay buffer was added into each well, the precipitate is avoided to be shaken as far as possible, and the centrifugation was conducted for 3 minutes again. The supernatant was sucked out, and the precipitate was reserved. The centrifugation was repeated once, the supernatant was sucked out, and the precipitate was reserved. 300 μl of scintillation fluid was added to each well.

Compound | IC50 [nM]
O=C(CC(Nc1ccc([N+](=O)[O-])c(C(F)(F)F)c1)c1ccccc1)c1ccc(Cl)cc1 (stereo not drawn) [MWW6016] | 9.49

same assay, conditions: competition with 5 nM [3H]DHT, overnight at 4° C.; read-out: Receptor binding (IC50)

IC50 [nM] | Compound
2.93 | O=C(CC(Nc1ccc([N+](=O)[O-])cc1)c1ccccc1)c1ccc(Cl)cc1 (stereo not drawn) [MWW6003]
2.85 | O=C(CC(Nc1ccc([N+](=O)[O-])cc1)c1ccccc1)c1ccc(Br)cc1 (stereo not drawn) [MWW6015]
6.45 | O=C(CC(Nc1ccc(Cl)c([N+](=O)[O-])c1)c1ccccc1)c1ccc(Cl)cc1 (stereo not drawn) [MWW6021]
4.31 | O=C(CC(Nc1ccc(Cl)c([N+](=O)[O-])c1)c1ccccc1)c1ccc(Br)cc1 (stereo not drawn) [MWW6022]
3.25 | O=C(CC(Nc1ccc(Cl)c([N+](=O)[O-])c1)c1ccco1)c1ccc(Cl)cc1 (stereo not drawn) [MWW6030]
3.61 | O=C(CC(Nc1ccc(Cl)c([N+](=O)[O-])c1)c1ccco1)c1ccc(Br)cc1 (stereo not drawn) [MWW6031]
3.01 | O=C(CC(Nc1ccc([N+](=O)[O-])cc1)c1ccco1)c1ccc(Br)cc1 (stereo not drawn) [MWW6033]

test system: not given; test: not given; settings: not given

melting point [°C] | Compound
152 to 154 | Cc1ccc(C(=O)CC(Nc2ccc(Cl)cc2)c2ccccc2)cc1 (stereo not drawn) [Example 1, 3-phenyl-3-(4-chloroanilino)-1-(4-methylphenyl)-1-acetone]
157 to 159 | Cc1ccc(C(=O)CC(Nc2ccc([N+](=O)[O-])cc2)c2ccccc2)cc1 (stereo not drawn) [Example 3, 3-phenyl-3-(4-nitroanilino)-1-(4-methylphenyl)-1-acetone]
208 to 210 | Cc1ccc(C(=O)CC(Nc2ccc(C(=O)O)cc2)c2ccccc2)cc1 (stereo not drawn) [Example 4, 3-phenyl-3-(4-carboxylanilino)-1-(4-methylphenyl)-1-acetone]
131 to 132 | Cc1ccc(C(=O)CC(Nc2ccccc2)c2ccc(C)cc2)cc1 (stereo not drawn) [Example 5, 3-(4-methylphenyl)-3-anilino-1-(4-methylphenyl)-1-acetone]

test system: androgen receptor; test: Test of reporter gene expression (luciferase) in transfected MDA-MB-453 cells; type: cell-based, human; settings: not given

Compound | androgen receptor antagonistic activities, IC50 compared with bicalutamide
O=C(CC(Nc1ccc([N+](=O)[O-])cc1)c1ccccc1)c1ccc(Cl)cc1 (stereo not drawn) [MWW6003] | close to the androgen receptor antagonist bicalutamide
O=C(CC(Nc1ccc([N+](=O)[O-])cc1)c1ccco1)c1ccc(Cl)cc1 (stereo not drawn) [MWW6032] | close to the androgen receptor antagonist bicalutamide
